Data from patent EP1143981B1, “USE OF N-GLYCOLNEURAMINIC ACID AND ITS DERIVATIVES FOR THE MANUFACTURE OF A MEDICAMENT FOR THE TREATMENT OF HIV INFECTIONS” (Glukor, Inc., priority 1998, dated 2000).
Values joined by “and” are separate entries in the source; they are usually repeats but may differ in a detail not shown here. Identical values can stand only once.

Tested on: HIV-1ROJO
Experiment: Reverse transcriptase activity assay in infected PBMCs
Type: cell-based
Settings: for RT activity % VC: % virus control; for RT Activity (cpm) / Reverse Transcriptase (RT) Activity (cpm): single samples; for IC50: Human immunodeficiency virus 1, PBMC
From the text: PBMCs were isolated from fresh human blood obtained commercially from the American Red Cross (Baltimore, Maryland). CEM-SS cells were obtained from the NIH AIDS reagent program. The low passage, lymphotropic clinical isolate ROJO was obtained from a pediatric patient attending the AIDS Clinic at the University of Alabama at Birmingham. Phytohemagglutinin (PHA-P) was obtained from Sigma Chemical Co. (St. Louis, MO) and recombinant IL-2 was obtained from Amgen (San Francisco, CA). As a positive control for antiviral assays, AZT was obtained from the NIH AIDS Reagent Program. HIV-1RF also was obtained from the NIH AIDS reagent program. Tritiated thymidine triphosphate was obtained from New England Nuclear (Boston, MA). Each plate in each experiment contained cell control wells (cells only), virus control wells (cells plus virus), drug toxicity control wells (cells plus drug only), drug colorimetric control wells (drug only) as well as experimental wells (drug plus cells plus virus).
Fresh human PBMCs were isolated from voluntary Red Cross donors, seronegative for HIV and HBV. Leukophoresed blood was diluted 1:1 with Dulbecco's PBS, layered over 14 mL of Ficoll-Hypaque density gradient in a 50mL centrifuge and then centrifuged for 30 minutes at 600 x g. Banded PBMCs were gently aspirated from the resulting interface and subsequently washed twice with PBS by low speed centrifugation. […] PBMCs were maintained in this medium at a concentration of 1-2 x 10^6 cells/mL with bi-weekly medium changes until used in the assay.
For the standard PBMC assay, PHA-P stimulated cells from at least two normal donors were pooled, diluted in fresh medium to a final concentration of 1 x 10^6 cells/mL, and plated in the interior wells of a 96 well round bottom microplate at 50 µL/well (5 x 10^4 cells/well). Test drug dilutions were prepared at a 2X concentration in microfuge tubes and 100 µL of each concentration was placed in appropriate wells in a standard format. A predetermined dilution of virus stock was placed in each test well (50 µL, final MOI ≅ 0.1). Wells with cells and virus alone were used for virus control. Separate plates were prepared identically without virus for drug cytotoxicity studies using an XTT assay system. The PBMC cultures were maintained for seven days following infection, at which time cell-free supernatant samples were collected and assayed for reverse transcriptase activity as described below.
Virus Preparation: Pre-tittered aliquots of HIV-1ROJO and HIV-1RF were removed from the freezer (-80°C) and thawed to room temperature in a biological safety cabinet. The virus was resuspended and diluted into tissue culture medium such that the amount of virus added to each well in a volume of 50 µL will be the amount determined to give complete cell killing at 6 days post-infection.
Reverse Transcriptase Activity Assay: A microtiter based reverse transcriptase (RT) reaction was utilized as described by Buckheit et al., (1991), AIDS Research and Human Retroviruses, 7:295-302. Tritiated thymidine triphosphate (^3H-TTP) was suspended in distilled H2O at 5 Ci/mL. Poly rA and oligo dT were prepared as a stock solution which was kept at -20°C. RT reaction buffer was prepared fresh on a daily basis and contained 125 µL 1M EGTA, 125 µL dH2O, 110 µL 10% SDS, 50 µL 1M Tris (pH 7.4), 50 µL 1M DTT, and 40 µL 1M MgCl2. These three solutions were mixed together in a ratio of 2 parts ^3H-TTP, 1 part poly rA:oligo dT, and 1 part reaction buffer. Ten microliters of this reaction mixture were placed in a round bottom microtiter plate and 15 µL of virus containing supernatant were added and mixed. The plate was incubated at 37°C in a water bath with a solid support to prevent submersion of the plate and incubated for 60 minutes.

[1] = 0.0001 mM, simultaneously exposed to drug and HIV
[2] = 0.00032 mM, 2-hour pretreatment
[3] = 0.00032 mM, simultaneously exposed to drug and HIV
[4] = 0.001 mM, simultaneously exposed to drug and HIV
[5] = 0.0032 mM, simultaneously exposed to drug and HIV
[6] = 0.01 mM, simultaneously exposed to drug and HIV
[7] = 0.032 mM, simultaneously exposed to drug and HIV
[8] = 0.1 mM, simultaneously exposed to drug and HIV
[9] = 0.32 mM, simultaneously exposed to drug and HIV
[10] = 1 mM, simultaneously exposed to drug and HIV

## O=C(CO)N[C@H]1[C@H]([C@H](O)[C@H](O)CO)OC(O)(C(=O)O)C[C@@H]1O (stereo partly shown) [N-glycolylneuraminic acid]
0.0001 mM, 2-hour pretreatment
  Reverse Transcriptase (RT) Activity (cpm), Mean: 2763.7 cpm
  RT activity % VC: 134.2%
[1]
  RT Activity (cpm), Mean: 2348.3 cpm
  RT activity % VC: 78.5%
  RT Activity (cpm): 2423.0 cpm and 2253.0 cpm and 2369.0 cpm
[2]
  Reverse Transcriptase (RT) Activity (cpm), Mean: 2015.3 cpm
  RT activity % VC: 97.8%
[3]
  RT Activity (cpm), Mean: 2795.0 cpm
  RT activity % VC: 93.4%
0.001 mM, 2-hour pretreatment
  Reverse Transcriptase (RT) Activity (cpm), Mean: 1867.0 cpm
  RT activity % VC: 90.6%
[4]
  RT Activity (cpm), Mean: 3108.7 cpm
  RT activity % VC: 103.9%
0.0032 mM, 2-hour pretreatment
  Reverse Transcriptase (RT) Activity (cpm), Mean: 2529.0 cpm
  RT activity % VC: 122.8%
  Reverse Transcriptase (RT) Activity (cpm): 2381.0 cpm and 3368.0 cpm and 1838.0 cpm
[5]
  RT Activity (cpm), Mean: 2892.7 cpm
  RT activity % VC: 96.7%
0.01 mM, 2-hour pretreatment
  Reverse Transcriptase (RT) Activity (cpm), Mean: 951.3 cpm
  RT activity % VC: 46.2%
[6]
  RT Activity (cpm), Mean: 2163.3 cpm
  RT activity % VC: 72.3%
  RT Activity (cpm): 2284.0 cpm and 2280.0 cpm and 1926.0 cpm
0.032 mM, 2-hour pretreatment
  Reverse Transcriptase (RT) Activity (cpm), Mean: 561.7 cpm
  RT activity % VC: 27.3%
[7]
  RT Activity (cpm), Mean: 1867.3 cpm
  RT activity % VC: 62.4%
  RT Activity (cpm): 1814.0 cpm and 2094.0 cpm and 1694.0 cpm
0.1 mM, 2-hour pretreatment
  Reverse Transcriptase (RT) Activity (cpm), Mean: 459.0 cpm
  RT activity % VC: 22.3%
[8]
  RT Activity (cpm), Mean: 906.3 cpm
  RT activity % VC: 30.3%
0.32 mM, 2-hour pretreatment
  Reverse Transcriptase (RT) Activity (cpm), Mean: 146.7 cpm
  RT activity % VC: 7.1%
  Reverse Transcriptase (RT) Activity (cpm): 196.0 cpm and 140.0 cpm and 104.0 cpm
[9]
  RT Activity (cpm), Mean: 102.7 cpm
  RT Activity (cpm): 132.0 cpm and 108.0 cpm and 68.0 cpm
1 mM, 2-hour pretreatment
  Reverse Transcriptase (RT) Activity (cpm), Mean: 76.0 cpm
  RT activity % VC: 3.7%
  Reverse Transcriptase (RT) Activity (cpm): 72.0 cpm and 68.0 cpm and 88.0 cpm
[10]
  RT Activity (cpm), Mean: 204 cpm
  RT activity % VC: 6.8%
PBMCs, 2hr pretreatment
  IC50: ~10 µM
PBMCs, simultaneously exposed to drug and HIV, without a pretreatment
  IC50: ~58 µM
PBMCs, simultaneously exposed to drug and HIV
  TI: > 17.25
PBMCs, with and without a 2hr pretreatment of the cells
  anti-HIV activity: active
